Source: patent US9615577B2, “Herbicidally active cyclic dione compounds, or derivatives therefor, substituted by a phenyl which has an alkynyl-containing substituent” (Syngenta Limited, priority 2012, dated 2017)

Legend:
Format in all cases: in vivo
[1] = tested on: Alopecurus myosuroides (ALOMY); test: Test 1A glasshouse assay for herbicidal activity, pre-emergence; details: 312 h, 250 g/ha, evaluated after 13 days, read-out: percentage phytotoxicity ALOMY
Method in brief: (§1)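 Test plants grew from seed in standard soil under controlled glasshouse conditions (24/16 °C, 14 h light, 65% humidity) and received an aqueous acetone (50:50) spray with 0.5% Tween 20, either one day after sowing or after eight days. Damage was rated visually as percent phytotoxicity 13 days later.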

[2] = tested on: Amaranthus retroflexus (AMARE); test: as above; details: 312 h, 250 g/ha, evaluated after 13 days, read-out: percentage phytotoxicity AMARE
Method in brief: as §1

[3] = tested on: Echinochloa crus-galli (ECHCG); test: as above; details: 312 h, 250 g/ha, evaluated after 13 days, read-out: percentage phytotoxicity ECHCG
Method in brief: as §1

Setaria faberi (SETFA) [4] = test: as above; details: 312 h, 250 g/ha, evaluated after 13 days, read-out: percentage phytotoxicity SETFA
Method in brief: as §1

[5] = tested on: Amaranthus retroflexus (AMARE); test: Test 1A glasshouse assay for herbicidal activity, post-emergence; details: 312 h, evaluated after 13 days, read-out: percentage phytotoxicity AMARE
Method in brief: as §1

[6] = tested on: Echinochloa crus-galli (ECHCG); test: as above; details: 312 h, evaluated after 13 days, read-out: percentage phytotoxicity ECHCG
Method in brief: as §1

[7] = tested on: Brachiaria plantaginea (BRAPL); test: Test 1B glasshouse assay for herbicidal activity, pre-emergence; details: Urochloa plantaginea, 480 h, 20 DAA, read-out: percentage phytotoxicity BRAPL
Method in brief: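 Pots of soil were sown and held one day for pre-emergence or about 12 days for post-emergence treatment, then sprayed with an aqueous solution containing 0.2% v/v X-77 adjuvant, prepared from a 50 g/liter IF50 formulation, at rate-dependent concentration. Visual damage scoring followed at 20 or 15 DAA respectively.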

[8] = tested on: Beta vulgaris (BEAVA, sugar beet); test: Test 1B glasshouse assay for herbicidal activity, post-emergence; details: 360 h; for plant injury at 60 g/ha: 60 g/ha application rate; for plant injury at 30 g/ha: 30 g/ha application rate
Protocol: (§2) Seeds of a variety of monocotyledonous and dicotyledonous test plants are sown in standard soil in pots. The plants are cultivated for one day (for pre-emergence) or for about 12 days (range=10-13 days) (for post-emergence) under controlled conditions in a glasshouse (warm climate species at 24/18° C., cool climate species at 20/16° C., both at day/night; 16 hours light; 65% humidity).
(§3) An “instant formulation”, known as the “IF50”, containing 50 g/liter (i.e. 5% w/v) of the “technical” (i.e. unformulated) active ingredient is prepared by dissolving the active ingredient in a mixture of organic solvents and emulsifier, details of which are provided in the Table below. This IF50 is then mixed with a small, variable amount of acetone to aid dissolution, before addition of a 0.2% v/v aqueous solution of the adjuvant X-77 (which is a mixture of alkyl aryl polyoxyethylene glycols and free fatty acids in isopropanol, CAS Registry number 11097-66-8), as the aqueous diluent, to form an aqueous spray solution which contains a predetermined concentration of the active ingredient (which varies depending on the application rate of the active ingredient to the plants) and 0.2% v/v of the adjuvant X-77. This aqueous spray solution is then sprayed onto the plants, after one day's cultivation (for pre-emergence) or after about 12 days' cultivation (for post-emergence).
(§4) The test plants are then grown on, in a glasshouse (greenhouse) under controlled conditions (at either 24/18° C. or 20/16° C. (day/night) as mentioned above; 16 hours light; 65% humidity) and are watered twice daily. Either 15 days after application of the herbicide (15 DAA) (for post-emergence), or 20 days after application of the herbicide (20 DAA) (for pre-emergence), the test plants are evaluated visually, and an assessed percentage phytotoxicity score is given for each herbicidal application on each plant species (where 100%=total damage to plant; 0%=no damage to plant).
(§5) Cool climate crop plants: Triticum aestivum (TRZAW, winter wheat), Brassica napus (BRSNN, rape, also called oilseed rape or rapeseed), Beta vulgaris (BEAVA, sugar beet).

[9] = tested on: Brassica napus (BRSNN, rape); test: as above; details: 360 h; for plant injury at 60 g/ha: 60 g/ha application rate; for plant injury at 30 g/ha: 30 g/ha application rate
Protocol: as §2, §3, §4, §5

[10] = tested on: Triticum aestivum (TRZAW, winter wheat); test: as above; details: 360 h; for plant injury at 60 g/ha: 60 g/ha application rate
Protocol: as §2, §3, §4, §5

[11] = tested on: Glycine max (GLXMA, soybean); test: as above; details: 360 h; for plant injury at 60 g/ha: 60 g/ha application rate; for plant injury at 30 g/ha: 30 g/ha application rate
Protocol: as §2, §3, §4
Warm climate crop plants: Glycine max (GLXMA, soybean).

[12] = tested on: Alopecurus myosuroides (ALOMY); test: as above; details: 360 h; for pest or weed control at 60 g/ha: 60 g/ha application rate; for pest or weed control at 30 g/ha: 30 g/ha application rate
Protocol: as §2, §3, §4
(§6) Cool climate (“cool season”) grassy monocotyledonous weeds: Alopecurus myosuroides (ALOMY), Avena fatua (AVEFA), Lolium perenne (LOLPE).

Avena fatua (AVEFA) = test: as above; details: 360 h; for pest or weed control at 60 g/ha: 60 g/ha application rate; for pest or weed control at 30 g/ha: 30 g/ha application rate
Protocol: as §2, §3, §4, §6

Lolium perenne (LOLPE) = test: as above; details: 360 h; for pest or weed control at 60 g/ha: 60 g/ha application rate; for pest or weed control at 30 g/ha: 30 g/ha application rate
Protocol: as §2, §3, §4, §6

[13] = tested on: Digitaria sanguinalis (DIGSA); test: as above; details: 360 h; for pest or weed control at 60 g/ha: 60 g/ha application rate; for pest or weed control at 30 g/ha: 30 g/ha application rate
Protocol: as §2, §3, §4
(§7) Warm climate (“warm season”) grassy monocotyledonous weeds: Setaria faberi (SETFA), SORVU (Sorghum bicolor (L.) Moench ssp. Bicolor, or Sorghum vulgare Pers.), Digitaria sanguinalis (DIGSA), Echinochloa crus-galli (ECHCG), and Brachiaria plantaginea (BRAPL).

[14] = tested on: SORVU (Sorghum bicolor (L.) Moench ssp. Bicolor, or Sorghum vulgare Pers.); test: as above; details: 360 h; for pest or weed control at 60 g/ha: 60 g/ha application rate; for pest or weed control at 30 g/ha: 30 g/ha application rate
Protocol: as §2, §3, §4, §7

Setaria faberi (SETFA) [15] = test: as above; details: 360 h; for pest or weed control at 60 g/ha: 60 g/ha application rate; for pest or weed control at 30 g/ha: 30 g/ha application rate
Protocol: as §2, §3, §4, §7

[16] = tested on: Abutilon theophasti Medik. (ABUTH); test: Test 1A glasshouse assay for herbicidal activity, post-emergence; details: 312 h, evaluated after 13 days, read-out: percentage phytotoxicity ABUTH
Method in brief: as §1

CC#Cc1ccc(C2C(=O)C3CCC(C3)C2=O)c(C)c1 (single isomer, unassigned) [Compound A-2]
70%: pest or weed control at 250 g/ha (Setaria faberi (SETFA) [4]) | plant injury at 60 g/ha [9]
90%: pest or weed control at 250 g/ha [1] | pest or weed control at 60 g/ha [12]
0%: pest or weed control at 250 g/ha [2] | pest or weed control at 250 g/ha [5]
40%: plant injury at 60 g/ha [11]
100%: pest or weed control at 250 g/ha [3] | pest or weed control at 250 g/ha [6] | pest or weed control at 500 g/ha [7] | pest or weed control at 60 g/ha [13] | pest or weed control at 60 g/ha (Setaria faberi (SETFA) [15])
10%: plant injury at 60 g/ha [8]
80%: plant injury at 60 g/ha [10] | pest or weed control at 60 g/ha (Avena fatua (AVEFA)) | pest or weed control at 60 g/ha (Lolium perenne (LOLPE)) | pest or weed control at 60 g/ha [14]

CC#Cc1ccc(C2C(=O)C(C)(C)OC(C)(C)C2=O)c(C)c1 [Compound A-1]
70%: plant injury at 60 g/ha [9] | plant injury at 60 g/ha [11] | pest or weed control at 60 g/ha (Setaria faberi (SETFA) [15])
90%: pest or weed control at 250 g/ha [1] | pest or weed control at 250 g/ha (Setaria faberi (SETFA) [4]) | pest or weed control at 500 g/ha [7]
80%: pest or weed control at 250 g/ha [3] | plant injury at 60 g/ha [10] | pest or weed control at 60 g/ha [12] | pest or weed control at 60 g/ha (Lolium perenne (LOLPE)) | pest or weed control at 60 g/ha [13]
60%: pest or weed control at 60 g/ha (Avena fatua (AVEFA))
100%: pest or weed control at 250 g/ha [6]
10%: pest or weed control at 250 g/ha [5]
30%: plant injury at 60 g/ha [8]
0%: pest or weed control at 250 g/ha [2] | pest or weed control at 60 g/ha [14]

CC#Cc1cc(C)c(C2C(=O)C3CCC(C3)C2=O)c(C)c1 (centres unmarked) [Compound A-5]
70%: plant injury at 30 g/ha [9] | plant injury at 60 g/ha [9] | plant injury at 125 g/ha ([10]; 125 g/ha application rate) | pest or weed control at 30 g/ha [12] | pest or weed control at 60 g/ha (Lolium perenne (LOLPE)) | pest or weed control at 30 g/ha [14]
30%: plant injury at 125 g/ha ([8]; 125 g/ha application rate) | plant injury at 500 g/ha ([8]; 500 g/ha application rate) | plant injury at 30 g/ha ([10]; 30 g/ha application rate) | plant injury at 60 g/ha [10] | plant injury at 125 g/ha ([11]; 125 g/ha application rate) | pest or weed control at 30 g/ha (Avena fatua (AVEFA)) | pest or weed control at 60 g/ha (Avena fatua (AVEFA)) | pest or weed control at 30 g/ha (Lolium perenne (LOLPE))
20%: plant injury at 60 g/ha [11]
40%: plant injury at 30 g/ha [8] | plant injury at 60 g/ha [8] | plant injury at 500 g/ha ([11]; 500 g/ha application rate)
10%: pest or weed control at 30 g/ha ([5]; 30 g/ha) | plant injury at 30 g/ha [11]
0%: pest or weed control at 250 g/ha [2] | pest or weed control at 30 g/ha ([16]; 30 g/ha) | pest or weed control at 250 g/ha [5]
80%: plant injury at 125 g/ha ([9]; 125 g/ha application rate) | plant injury at 500 g/ha ([9]; 500 g/ha application rate) | plant injury at 500 g/ha ([10]; 500 g/ha application rate) | pest or weed control at 60 g/ha [12] | pest or weed control at 125 g/ha ([12]; 125 g/ha application rate) | pest or weed control at 125 g/ha (Avena fatua (AVEFA); 125 g/ha application rate) | pest or weed control at 500 g/ha (Avena fatua (AVEFA); 500 g/ha application rate) | pest or weed control at 125 g/ha (Lolium perenne (LOLPE); 125 g/ha application rate) | pest or weed control at 500 g/ha (Lolium perenne (LOLPE); 500 g/ha application rate) | pest or weed control at 60 g/ha [14] | pest or weed control at 30 g/ha (Setaria faberi (SETFA) [15])
90%: pest or weed control at 250 g/ha (Setaria faberi (SETFA) [4]) | pest or weed control at 500 g/ha ([12]; 500 g/ha application rate) | pest or weed control at 30 g/ha [13] | pest or weed control at 60 g/ha (Setaria faberi (SETFA) [15])
60%: pest or weed control at 250 g/ha ([16]; 250 g/ha)
100%: pest or weed control at 250 g/ha [1] | pest or weed control at 250 g/ha [3] | pest or weed control at 30 g/ha ([6]; 30 g/ha) | pest or weed control at 250 g/ha [6] | pest or weed control at 500 g/ha [7] | pest or weed control at 60 g/ha [13] | pest or weed control at 125 g/ha ([13]; 125 g/ha application rate) | pest or weed control at 500 g/ha ([13]; 500 g/ha application rate) | pest or weed control at 125 g/ha ([14]; 125 g/ha application rate) | pest or weed control at 500 g/ha ([14]; 500 g/ha application rate) | pest or weed control at 125 g/ha (Setaria faberi (SETFA) [15]; 125 g/ha application rate) | pest or weed control at 500 g/ha (Setaria faberi (SETFA) [15]; 500 g/ha application rate)

Cc1cc(C#CCl)cc(C)c1C1C(=O)C2CCC(C2)C1=O (centres unmarked) [Compound A-6]
100%: pest or weed control at 250 g/ha [1] | pest or weed control at 250 g/ha [3] | pest or weed control at 250 g/ha (Setaria faberi (SETFA) [4]) | pest or weed control at 62.5 g/ha ([6]; 62.5 g/ha) | pest or weed control at 250 g/ha [6] | pest or weed control at 30 g/ha [13] | pest or weed control at 60 g/ha [13] | pest or weed control at 30 g/ha (Setaria faberi (SETFA) [15]) | pest or weed control at 60 g/ha (Setaria faberi (SETFA) [15])
40%: plant injury at 30 g/ha [8] | plant injury at 30 g/ha [9] | plant injury at 60 g/ha [10] | pest or weed control at 30 g/ha (Lolium perenne (LOLPE))
10%: pest or weed control at 62.5 g/ha ([5]; 62.5 g/ha)
60%: plant injury at 60 g/ha [9] | pest or weed control at 60 g/ha (Avena fatua (AVEFA))
0%: pest or weed control at 250 g/ha [5] | plant injury at 30 g/ha [11] | plant injury at 60 g/ha [11]
30%: pest or weed control at 250 g/ha [2]
70%: pest or weed control at 60 g/ha (Lolium perenne (LOLPE))
50%: plant injury at 60 g/ha [8] | pest or weed control at 30 g/ha [12] | pest or weed control at 60 g/ha [12] | pest or weed control at 30 g/ha (Avena fatua (AVEFA))
90%: pest or weed control at 30 g/ha [14] | pest or weed control at 60 g/ha [14]
80%: pest or weed control at 125 g/ha ([7]; 125 g/ha)
